{
  "source": "patent US20250076320A1",
  "about": "“METHOD AND PROGRAM FOR DETECTING ADMINISTERED DRUG, AND DEVICE THEREFOR” (A&T CORPORATION, priority 2023, published 2025)",
  "test_system": "prothrombin time (blood coagulation, extrinsic pathway)",
  "experiment": "Clot waveform analysis with dry PT reagent containing magnetic particles on the CG02N blood coagulation analyzer",
  "conditions": "samples receiving administration of rivaroxaban, PT-INR 2.0 or higher (22 samples); inclination from maximal movement level of magnetic particles to 5% attenuation; 25 μl sample; samples not receiving DOAC: −1219.8",
  "description": "When measurement is initiated, apparatus CG02N turns electromagnets at the bottom of the reaction cell on and off, and allows magnetic particles to move in the reaction cell. CG02N observes the movement of the magnetic particles as the amount of change in the scattered light, and analyzes the change with the elapse of time to determine clotting time. When the CG02N analyzer is used, the change in the movement signal of the magnetic particles over time is inversely correlated to the change in the viscosity of the dry reagent. As the clotting reaction advances, the viscosity in the reaction cell increases, and the movement of the magnetic particles becomes slower. The clot waveform is analyzed by determining a difference between the waveform value (scattered light) after a given period of time from the point when an electromagnet is turned on and the waveform value (scattered light) after a given period of time from the point when electromagnet is turned off. Differences in the waveform values are plotted with the elapse of time, and a point at which the waveform value is lowered by a given percentage from the maximal value (also referred to as “peak TOP”) is designated as the end point. The period from the peak TOP to the end point is measured to obtain the measured value (seconds). The term “clotting time” used herein refers to the period from the peak TOP to the end point. […]",
  "data": [
    {"compound": "O=C(NC[C@H]1CN(c2ccc(N3CCOCC3=O)cc2)C(=O)O1)c1ccc(Cl)s1", "note": "[rivaroxaban]", "values": [
      {"measurement": "Slope of clot waveform, Mean", "value": "−805.9"}
    ]}
  ]
}
